Experiments:
[1] = test system: arachidonic acid-induced ear oedema; experiment: Mouse ear oedema model (arachidonic acid-induced acute inflammation); assay type: in vivo, Laca mice; details: 300 μg per ear topical in acetone, 30 min before arachidonic acid, 1 hour after arachidonic acid
Experimental: Mouse Ear Oedema Model The mouse ear oedema model was performed using Laca mice (25-35 g), of either sex. The animals were sedated with fentanyl/fluanisone (Hypnorn, Janssen). One ear was treated by the topical application of one of a range of test compounds or dexamethasone (all at 300 μg per ear in acetone). After 30 minutes, oedema was induced by the topical application of arachidonic acid (10 μl at 0.4 g/ml in acetone). The width of each ear was measured, both before and 60 minutes after the induction of oedema, using a micrometer screw gauge. Ear oedema was calculated by comparing the ear width before and after induction of oedema and expressed as percentage normal. Values are expressed as the percentage increase in ear thickness 1 hour after administration of archidonic acid and solvent controls (n=6 except Compound IV, n=4). Acute Inflammation—Mouse Ear

mast cells = experiment: Histamine release assay (mast cell stabilisation, compound 48/80-induced histamine release); assay type: cell-based, Female Wistar rats; details: rat peritoneal mast cells, 2×10^−5 M test compound, stimulated with Compound 48/80, n=5, read-out: % inhibition of histamine Release (±S.E.M.)
Experimental: The compounds were assessed for their ability to stabilise mast cell membranes in vitro. Mast cells treated with the compounds and untreated mast cells were stimulated to release histamine. A reduction in histamine release by the treated cells compared to the untreated cells indicates stabilisation of the membranes.
The buffered salt solution (BSS) was prepared in advance (NaCl 137 mM; KCl 2.7 mM; MgCl2 1.0 mM; CaCl2 0.5 mM; NaH2PO4 0.4 mM; Glucose 5.6 mM; HEPES 10 mM). This was dispensed into test tubes and heated to 37° C. each test tube contained 4.5 ml BSS. The solvent blank was supplemented with 0.5% (v/v) dimethyl sulphoxide (DMSO) or 0.5% (v/v) distilled water (dH2O). […]
To 2 ml of supernatent from each tube was added 0.4 ml of 1 M NaOH and 0.1 ml oPT (1% (w/v) in methanol). […] The presence of the fluorescent product of the reaction was measured using a Shimadzu RF-1501 spectrofluorophotometer set at λex=360 nm, λem=450 nm.
Each drug was tested on at least five animals (n=5). The results were expressed as a percentage of maximum inhibition of compound 48/80 induced-histamine release in the solvent blank sample. […] The basal histamine release in untreated cells was noted, expressed as a percentage of the total histamine content of the cells in suspension.

[2] = first set, solvent control 69.0
[3] = second set, solvent control 79.6

Row | Structure (SMILES) | Mean % (percentage increase in ear thickness) [1, 2] | inhibition at 20 µM (mast cells) | Mean % (percentage increase in ear thickness) [1, 3]
1 | O=C(CC1(C2=Cc3ccccc3C2)Cc2ccccc2C1=O)c1ccccc1 (stereo not shown) [Compound I, 1-phenyl-2-((2′-iidenyl)-indan-2-onyl)ethan-1-one] | 49.3% |  | 
2 | OC(CC1(C2=Cc3ccccc3C2)Cc2ccccc2C1O)c1ccccc1 (stereo not shown) [Compound II, 1-phenyl-2-((2′-iindenyl)-indan-2-ol)ethan-1-ol] |  | 53.5 ± 2.53% | 17.7%
3 | O=C(CC1(C2=Cc3ccccc3C2)Cc2ccccc2C1O)c1ccccc1 (stereo not shown) [Compound III, 1-phenyl-2-((2′-iidenyl)-indan-2-ol)ethan-1-one] |  |  | 37.3%
4 | O=C1c2ccccc2CC1(CC(O)c1ccccc1)C1=Cc2ccccc2C1 (stereo not shown) [Compound IV, 1-phenyl-2-((2′-iidenyl)-indan-2-one)ethan-1-ol] |  |  | 13.1%
5 | C[C@@H]1C[C@H]2[C@@H]3CCC4=CC(=O)C=C[C@]4(C)[C@@]3(F)[C@@H](O)C[C@]2(C)[C@@]1(O)C(=O)CO [Dexamethasone, reference compound] | 41.6% |  | 54.0%

Source: patent US6433021B1, “Indane compounds and their pharmaceutical use” (Venantius Limited, priority 1999, dated 2002)
